Assay results: patent US20170290882A1, “Specific Combined Therapy of Malignant Tumors with a Cytostatic and Its Modifier” (priority 2015, published 2017)

Legend:
[1] = test system: P388 lymphoplastic leukemia; experiment: Combined therapy different cytostatics+GMDP-A in the P388 lymphoplastic leukemia model; type: in vivo, BDF1 mice; conditions: single cytostatic alone (DDP 1/2, gemzar 1/2, CP 1/4 therapeutic dose), start 24 hours after inoculation
Description: Anti-tumor efficiency of the claimed combined therapy and comparative monotherapy using only a cytostatic or only GMDP-A modifier was assessed by the criteria commonly used in experimental oncology: tumor volume (TV), tumor growth inhibition (TGI), increase of the animal life time (ILT), tumor metastasis frequency (MF), metastasis inhibition rate (MI).
Comparative study was carried out of the GMDP-A modifying effect relatively different cytostatic agents: cisplatin (DDP), gemzar and cyclophosphan (CP), in the P388 lymphoplastic leukemia model. Efficiency of combined therapy with cytostatics and GMDP-A was assessed while using DDP in amount of ½ therapeutic dose, gemzar as ½ therapeutic dose and CP in amount of ¼ therapeutic dose. Treatment was started on the early term of tumor growth (in 24 hours after inoculation); GMDP-A was injected during 21 days in a daily dose of 3.75 mg/kg. The drug was administered subcutaneously in 2 areas: in the tumor growth area (over the tumor) or in symmetry area (on the opposite side of the tumor node).
The following commercially-available drugs were used: Cyclophosphan Endoxan® trade mark, manufactured by Baxter Oncology GmbH, Germany; Cisplatin, Cisplatin Teva trade mark, manufacturer is Teva Pharmaceutical Industries Ltd., Israel (fabricated at Pharmachemie B. V., the Netherlands); Gemcitabine, Gemcitar trade mark, manufactured by CJSC Biocad, Russia.
1 mg/ml GMDP-A solution for subcutaneous injection was prepared by dissolving GMDP-A lyophilisate in water for injections.

[2] = test system: P388 lymphoplastic leukemia; experiment: Combined therapy DDP+GMDP-A in the P388 lymphoplastic leukemia model; type: in vivo, mice BDF1; conditions: single DDP 4 mg/kg i.v. alone
Description: (§1) They were transplanted on the right-side surface of the animal body.
(§2) The animals with tumors were treated in test groups at the early (24 hours after tumor inoculation) and late (5 days after tumor inoculation) terms of the tumor growth using a single cytostatic injection intravenously in a dose equal to ½ or ¼ of therapeutic one and various schedules for GMDP-A injection: • Primary subcutaneous injection of GMDP-A modifier in a single dose 3.75 mg/kg; • Repeated protracted subcutaneous administration of GMDP-A modifier according to different schedules: 4-fold, 9-fold and 20-fold, once per day, in a single dose of 3.75 mg/kg (course dose is 18.75 mg/kg, 37.5 mg/kg and 78.75 mg/kg, correspondingly). Dosage frequency depends upon the model (histological form of transplanted tumor).
(§3) To identify efficiency of the claimed combined therapy, independent medication was carried out as a control after tumor inoculation using one component of binary therapy-cytostatic drug or a modifier. Cytostatic was injected intravenously in amount of ½ or ¼ of therapeutic dose once after 24 hours or 5 days after tumor inoculation; GMDP-A modifier was administered subcutaneously in a single dose of 3.75 mg/kg 5-fold from the 1st day to the 5th day or from the 5th day to the 9th day, or 10-fold from the 1st day to the 10th day or from the 5th day to the 14th day, or 21-fold from the 1st day to the 21st day after tumor inoculation.
Efficiency of the combined therapy—chemotherapy with cisplatin cytostatic (DDP) and bioherapy with GMDP-A was assessed on P388 lymphoplastic leukemia model inoculated to mice BDF1, females, subcutaneously on the right-side body surface.
GMDP-A was administered to mice subcutaneously as a single dose of 3.75 mg/kg every day with different schedules: • Five-fold (total dose is 18.75 mg/kg) on the 1st day to the 5th day or on the 5th day to the 9th day after tumor inoculation; • Ten-fold (total dose is 37.5 mg/kg) on the 1st day to the 10th day or on the 5th day to the 14th day after tumor inoculation; • Twenty-one-fold (total dose is 78.75 mg/kg) on the 1st day to the 21st st day after tumor inoculation.
DDP (Cisplatin, Cisplatin Teva trade mark, manufacturer is Teva Pharmaceutical Industries Ltd., Israel, fabricated at Pharmachemie B.V., the Netherlands) was administered intravenously as a single dose ma 4 mg/kg (½ of therapeutic dose).

B16 melanoma = experiment: Binary therapy DDP+GMDP-A in the B16 melanoma model; type: in vivo, BDF1 mice; conditions: single DDP 4 mg/kg i.v. alone
Description: as §1, §2, §3
Efficiency of the combined therapy—chemotherapy with DDP cytostatic and biotherapy with GMDP-A was assessed on B16 melanoma model inoculated to BDF1 mice, females, subcutaneously on the right-side body surface.
GMDP-A was administered to mice subcutaneously as a single dose of 3.75 mg/kg every day with different schedules:
Five-fold (total dose is 18.75 mg/kg) on the 1st day to the 5th day or on the 5th day to the 9th day after tumor inoculation;
Ten-fold (total dose is 37.5 mg/kg) on the 1st day to the 10th day or on the 5th day to the 14th day after tumor inoculation;
DDP (Cisplatin, Cisplatin Teva trade mark, manufacturer is Teva Pharmaceutical Industries Ltd., Israel, fabricated at Pharmachemie B.V., the Netherlands) was administered intravenously as a single dose of 4 mg/kg (½ of therapeutic dose).

[3] = test system: P388 lymphoplastic leukemia; experiment: GMDP-A lyophilisate versus final pharmaceutical form, alone and with DDP, in the P388 lymphoplastic leukemia model; type: in vivo, BDF1 mice; conditions: if given, 21-fold, single
Description: Therapeutic efficiency of GMDP-A lyophilisate and the GMDP-A final pharmaceutical form was compared in the model of P338 lymphoplastic leukemia solid version at the early treatment start (in 24 hour after subcutaneous transplantation of tumor material) as GMDP-A monotherapy (lyophilisate or the final pharmaceutical form) as well as combined administration with DDP.
As a final pharmaceutical form, “GMDP-A, 1 mg/ml solution for subcutaneous injection” sterile solutions were used. They contained GMDP-A and the following auxiliary substances and carriers in pharmaceutically-accepted amounts: sorbitol, disodium edeteate, propylene glycol, water.

[4] = during intravenous injection; cited from earlier work

For `O=P1(N(CCCl)CCCl)NCCCO1` (stereo not drawn) [CP, cyclophosphan], the “tumor growth inhibition (TGI)” value ([1]; day 7) was 89%, the “tumor growth inhibition (TGI)” value ([1]; day 12) was 86% and the “tumor growth inhibition (TGI)” value ([1]; day 14) was 85%. For the same compound, the “tumor growth inhibition (TGI)” value ([1]; day 19) was 76%, the “tumor growth inhibition (TGI)” value ([1]; day 21) was 77% and the Average life time [1] was 31 ± 2 days. For the same compound, the “ILT (increase of the animal life time)” value [1] was 30%, the “Metastasis MF (tumor metastasis frequency)” value (shortened to “Metastasis MF”) [1] was 100% and the “Metastasis MI (metastasis inhibition rate)” value [1] was 89%.

With `N.N.[Cl][Pt][Cl]` [DDP, cisplatin, reference compound] the Tumor volume ([2]; day 7, early start (1st day)) was 37.9 ± 4.5 mm^3, the “tumor growth inhibition (TGI)” value ([2]; day 7, early start (1st day)) was 64% and the Tumor volume ([2]; day 7, late start (5th day)) was 75.4 ± 4.8 mm^3. For the same compound, the “tumor growth inhibition (TGI)” value ([2]; day 7, late start (5th day)) was 28%, the Tumor volume ([2]; day 9, early start (1st day)) was 67.5 ± 7.7 mm^3 and the “tumor growth inhibition (TGI)” value ([2]; day 9, early start (1st day)) was 53%. The Tumor volume ([2]; day 9, late start (5th day)) was 65.7 ± 6.2 mm^3, the “tumor growth inhibition (TGI)” value ([2]; day 9, late start (5th day)) was 54% and the Tumor volume ([2]; day 12, early start (1st day)) was 76.7 ± 7.7 mm^3. For the same compound, the “tumor growth inhibition (TGI)” value ([2]; day 12, early start (1st day)) was 61%, the Tumor volume ([2]; day 12, late start (5th day)) was 95.9 ± 8.4 mm^3 and the “tumor growth inhibition (TGI)” value ([2]; day 12, late start (5th day)) was 51%. The Tumor volume ([2]; day 14, early start (1st day)) was 155.3 ± 12 mm^3, the “tumor growth inhibition (TGI)” value ([2]; day 14, early start (1st day)) was 42% and the Tumor volume ([2]; day 14, late start (5th day)) was 149.3 ± 11.6 mm^3. For the same compound, the “tumor growth inhibition (TGI)” value ([2]; day 14, late start (5th day)) was 44%, the Tumor volume ([2]; day 19, early start (1st day)) was 374.1 ± 28.4 mm^3 and the “tumor growth inhibition (TGI)” value ([2]; day 19, early start (1st day)) was 41%. For the same compound, the Tumor volume ([2]; day 19, late start (5th day)) was 448.9 ± 33.2 mm^3, the “tumor growth inhibition (TGI)” value ([2]; day 19, late start (5th day)) was 30% and the Average life time ([2]; early start (1st day)) was 23 ± 0.7 days. For the same compound, the “ILT (increase of the animal life time)” value ([2]; early start (1st day)) was −4%, the “Metastasis MF” value ([2]; early start (1st day)) was 100% and the “Metastasis MI (metastasis inhibition rate)” value ([2]; early start (1st day)) was 49%. For the same compound, the Average life time ([2]; late start (5th day)) was 24 ± 0.6 days, the “ILT (increase of the animal life time)” value ([2]; late start (5th day)) was 0% and the “Metastasis MF” value ([2]; late start (5th day)) was 100%. For the same compound, the “Metastasis MI (metastasis inhibition rate)” value ([2]; late start (5th day)) was 50%, the Tumor volume (B16 melanoma; day 7, early start (1st day)) was 3 ± 3 mm^3 and the “tumor growth inhibition (TGI)” value (B16 melanoma; day 7, early start (1st day)) was 94%. The Tumor volume (B16 melanoma; day 9, early start (1st day)) was 13 ± 5 mm^3, the “tumor growth inhibition (TGI)” value (B16 melanoma; day 9, early start (1st day)) was 89% and the Tumor volume (B16 melanoma; day 9, late start (5th day)) was 51 ± 8 mm^3. For the same compound, the “tumor growth inhibition (TGI)” value (B16 melanoma; day 9, late start (5th day)) was 56%, the Tumor volume (B16 melanoma; day 12, early start (1st day)) was 54 ± 18 mm^3 and the “tumor growth inhibition (TGI)” value (B16 melanoma; day 12, early start (1st day)) was 80%. The Tumor volume (B16 melanoma; day 12, late start (5th day)) was 163 ± 22 mm^3, the “tumor growth inhibition (TGI)” value (B16 melanoma; day 12, late start (5th day)) was 38% and the Tumor volume (B16 melanoma; day 14, early start (1st day)) was 117 ± 20 mm^3. For the same compound, the “tumor growth inhibition (TGI)” value (B16 melanoma; day 14, early start (1st day)) was 69%, the Tumor volume (B16 melanoma; day 14, late start (5th day)) was 270 ± 45 mm^3 and the “tumor growth inhibition (TGI)” value (B16 melanoma; day 14, late start (5th day)) was 23%. For the same compound, the Tumor volume (B16 melanoma; day 16, early start (1st day)) was 232 ± 36 mm^3, the “tumor growth inhibition (TGI)” value (B16 melanoma; day 16, early start (1st day)) was 58% and the Tumor volume (B16 melanoma; day 16, late start (5th day)) was 424 ± 43 mm^3. For the same compound, the “tumor growth inhibition (TGI)” value (B16 melanoma; day 16, late start (5th day)) was 24%, the Tumor volume (B16 melanoma; day 19, early start (1st day)) was 653 ± 176 mm^3 and the “tumor growth inhibition (TGI)” value (B16 melanoma; day 19, early start (1st day)) was 39%. For the same compound, the Tumor volume (B16 melanoma; day 19, late start (5th day)) was 1010 ± 173 mm^3, the “tumor growth inhibition (TGI)” value (B16 melanoma; day 19, late start (5th day)) was 5% and the Average life time (B16 melanoma; early start (1st day)) was 28 ± 3 days. For the same compound, the “ILT (increase of the animal life time)” value (B16 melanoma; early start (1st day)) was 33%, the “Metastasis MF” value (B16 melanoma; early start (1st day)) was 20% and the “Metastasis MI (metastasis inhibition rate)” value (B16 melanoma; early start (1st day)) was 99%. For the same compound, the Average life time (B16 melanoma; late start (5th day)) was 25 ± 3 days, the “ILT (increase of the animal life time)” value (B16 melanoma; late start (5th day)) was 19% and the “Metastasis MF” value (B16 melanoma; late start (5th day)) was 100%. The “Metastasis MI (metastasis inhibition rate)” value (B16 melanoma; late start (5th day)) was 11%, the “tumor growth inhibition (TGI)” value ([1]; day 7) was 27% and the “tumor growth inhibition (TGI)” value ([1]; day 12) was 36%. For the same compound, the “tumor growth inhibition (TGI)” value ([1]; day 14) was 43%, the “tumor growth inhibition (TGI)” value ([1]; day 19) was 33% and the “tumor growth inhibition (TGI)” value ([1]; day 21) was 22%. The Average life time [1] was 26 ± 1 days, the “ILT (increase of the animal life time)” value [1] was 9% and the “Metastasis MF” value [1] was 100%. The “Metastasis MI (metastasis inhibition rate)” value [1] was 40%, the Tumor volume ([3]; day 8, early start (24 hour)) was 29.4 ± 5.3 mm^3 and the “tumor growth inhibition (TGI)” value ([3]; day 8, early start (24 hour)) was 65%. The Tumor volume ([3]; day 12, early start (24 hour)) was 53.6 ± 5.4 mm^3, the “tumor growth inhibition (TGI)” value ([3]; day 12, early start (24 hour)) was 67% and the Tumor volume ([3]; day 16, early start (24 hour)) was 96.3 ± 5.1 mm^3. For the same compound, the “tumor growth inhibition (TGI)” value ([3]; day 16, early start (24 hour)) was 73%, the Tumor volume ([3]; day 20, early start (24 hour)) was 440 ± 26.7 mm^3 and the “tumor growth inhibition (TGI)” value ([3]; day 20, early start (24 hour)) was 58%. For the same compound, the Average life time ([3]; early start (24 hour)) was 30.0 ± 2.8 days, the “ILT (increase of the animal life time)” value ([3]; early start (24 hour)) was 22% and the “Metastasis (upper, unnamed value in the Metastasis inhibition index column)” value ([3]; early start (24 hour)) was 172.0 ± 14.4. For the same compound, the “Metastasis MF” value ([3]; early start (24 hour)) was 100% and the Metastasis inhibition index ([3]; early start (24 hour)) was 32%.

In the case of `CC(=O)N[C@H]1[C@H](O[C@H]2[C@H](O[C@H](C)C(=O)N[C@@H](C)C(=O)N[C@H](CCC(=O)O)C(N)=O)[C@@H](NC(C)=O)C(O)O[C@@H]2CO)O[C@H](CO)[C@@H](O)[C@@H]1O` (stereo partly drawn) [GMDP, N-acetyl-D-glucosaminyl-β-(1-4)-N-acetylmuramoyl-L-alanyl-D-isoglutamine], the Pyrogenicity [4] is listed as “pyrogenic effect”.

With `Nc1ccn([C@@H]2O[C@H](CO)[C@@H](O)C2(F)F)c(=O)n1` [Gemzar, Gemcitabine] the “tumor growth inhibition (TGI)” value ([1]; day 7) was 60%, the “tumor growth inhibition (TGI)” value ([1]; day 12) was 37% and the “tumor growth inhibition (TGI)” value ([1]; day 14) was 34%. For the same compound, the “tumor growth inhibition (TGI)” value ([1]; day 19) was 45%, the “tumor growth inhibition (TGI)” value ([1]; day 21) was 44% and the Average life time [1] was 29 ± 2 days. For the same compound, the “ILT (increase of the animal life time)” value [1] was 21%, the “Metastasis MF” value [1] was 100% and the “Metastasis MI (metastasis inhibition rate)” value [1] was 69%.
